Results taken from patent US20240150377A1, “MODULATORS OF CYSTIC FIBROSIS TRANSMEMBRANE CONDUCTANCE REGULATOR” (VERTEX PHARMACEUTICALS INCORPORATED, priority 2020, published 2024).

Molecular target: T1, CFTR (Homo sapiens, UniProt P13569, DEL508-508)
T1 construct: endogenous in cells; host or cells: primary human bronchial epithelial cells from CF subjects (F508del/MF-HBE), differentiated at air-liquid interface
Experiment: HBE2 assay: Ussing chamber assay of CFTR-mediated short-circuit currents
Assay type: cell-based
Conditions: F508del/MF-HBE cells, 18-24 hours, 20% human serum; for Emax: read-out: HBE2 Max activity (%)
Method in brief: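 Corrector activity read as CFTR-dependent ISC (μA/cm^2): peak forskolin current minus post-inhibitor steady state. Measured at 37 °C, voltage clamp at 0 mV, on F508del/MF-HBE epithelia grown >14 days air-liquid interface in Ussing chambers.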

[1] = 3 μM corrector, with 44 nM potentiator

T1 sequence (P13569 with tags, fused parts or gaps DEL508-508): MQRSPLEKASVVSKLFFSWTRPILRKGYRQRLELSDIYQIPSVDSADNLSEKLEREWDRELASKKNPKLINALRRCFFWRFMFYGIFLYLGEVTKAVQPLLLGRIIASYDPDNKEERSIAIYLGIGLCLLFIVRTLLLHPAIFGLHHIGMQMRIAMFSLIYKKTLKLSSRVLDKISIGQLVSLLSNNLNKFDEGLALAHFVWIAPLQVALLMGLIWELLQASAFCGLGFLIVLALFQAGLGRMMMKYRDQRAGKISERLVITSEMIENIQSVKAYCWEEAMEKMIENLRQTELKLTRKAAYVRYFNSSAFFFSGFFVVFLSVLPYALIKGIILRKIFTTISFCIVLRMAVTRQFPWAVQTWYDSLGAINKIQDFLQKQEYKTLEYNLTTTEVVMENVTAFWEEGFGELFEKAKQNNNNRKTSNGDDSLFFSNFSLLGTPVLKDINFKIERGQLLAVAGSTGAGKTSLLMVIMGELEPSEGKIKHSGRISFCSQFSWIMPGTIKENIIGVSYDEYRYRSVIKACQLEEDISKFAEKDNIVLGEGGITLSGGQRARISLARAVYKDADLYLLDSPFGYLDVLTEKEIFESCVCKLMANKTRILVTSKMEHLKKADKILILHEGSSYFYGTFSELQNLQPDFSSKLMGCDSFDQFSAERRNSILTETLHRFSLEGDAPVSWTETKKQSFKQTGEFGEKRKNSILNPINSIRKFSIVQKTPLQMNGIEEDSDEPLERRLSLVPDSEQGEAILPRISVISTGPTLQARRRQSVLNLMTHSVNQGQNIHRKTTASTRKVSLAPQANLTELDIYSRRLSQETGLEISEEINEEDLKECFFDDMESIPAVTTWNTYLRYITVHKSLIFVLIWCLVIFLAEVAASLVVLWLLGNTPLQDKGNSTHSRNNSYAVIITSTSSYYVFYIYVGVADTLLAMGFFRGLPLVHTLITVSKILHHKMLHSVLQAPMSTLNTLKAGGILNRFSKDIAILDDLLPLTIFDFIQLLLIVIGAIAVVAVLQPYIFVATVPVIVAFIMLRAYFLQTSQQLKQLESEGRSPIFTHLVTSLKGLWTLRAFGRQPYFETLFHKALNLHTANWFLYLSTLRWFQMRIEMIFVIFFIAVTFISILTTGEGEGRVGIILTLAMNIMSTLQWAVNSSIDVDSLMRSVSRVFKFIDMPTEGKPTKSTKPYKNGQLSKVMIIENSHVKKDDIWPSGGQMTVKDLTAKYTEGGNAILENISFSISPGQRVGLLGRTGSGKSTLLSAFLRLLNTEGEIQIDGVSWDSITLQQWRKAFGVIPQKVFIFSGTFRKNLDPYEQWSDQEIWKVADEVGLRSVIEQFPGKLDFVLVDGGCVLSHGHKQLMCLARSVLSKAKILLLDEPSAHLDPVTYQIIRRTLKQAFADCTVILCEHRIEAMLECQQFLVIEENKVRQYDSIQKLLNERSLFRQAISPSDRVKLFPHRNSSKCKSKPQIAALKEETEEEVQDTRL

| SMILES | HBE2 Activity at 3 μM (%) [1] | HBE2 Activity at 3 μM (%) (3 μM, with 44 nM potentiator) | also measured |
| --- | --- | --- | --- |
| Cc1cccc(C)c1-c1cc2nc(n1)NS(=O)(=O)c1cccc(c1)C(=O)N(Cc1cnc3cc(C(C)C)n(C)c3n1)[C@H](CC1CCCC1)CO2 [Compound 1334, (11R)-11-(Cyclopentylmethyl)-6-(2,6-dimethylphenyl)-12-[(6-isopropyl-5-methyl-pyrrolo[2,3-b]pyrazin-3-yl)methyl]-2,2-dioxo-9-oxa-2λ^6-thia-3,5,12,19-tetrazatricyclo[12.3.1.14,8]nonadeca-1(18),4(19),5,7,14,16-hexaen-13-one] | +++ (+++ is >60+) | – | – |
| Cc1cccc(C)c1-c1cc2nc(n1)NS(=O)(=O)c1cccc(c1)C(=O)N(Cc1cncc(N3CCC4NC(=O)CC43)n1)[C@H](CC(C)(C)C)CO2 (stereo in doubt) [Compound 1622] | – | ++ (++ is 30-60%) | – |
| CCCOc1cnc(CN2C(=O)c3cccc(c3)S(=O)(=O)Nc3nc(cc(-c4c(C)cccc4C)n3)OC[C@H]2CCC2CC2)nc1 [Compound 1600] | – | +++ (+++ is >60+) | – |
| Cc1cccc(C)c1-c1cc2nc(n1)NS(=O)(=O)c1cccc(c1)C(=O)N(Cc1cncc(N(C)C3CCC3)n1)[C@H](CC1CC1)CO2 [Compound 1670] | – | +++ (+++ is >60+) | EC50 (with 44 nM potentiator): < 1 µM; Emax (with 44 nM potentiator): > 60% |
| Cc1cccc(C)c1-c1cc2nc(n1)NS(=O)(=O)c1cccc(c1)C(=O)N(Cc1cncc(N3CCC[C@H]3C(C)C)n1)[C@H](COC1CC1)CO2 [Compound 1341, (11R)-11-(Cyclopropoxymethyl)-6-(2,6-dimethylphenyl)-12-[[6-[(2S)-2-isopropylpyrrolidin-1-yl]pyrazin-2-yl]methyl]-2,2-dioxo-9-oxa-2^6-thia-3,5,12,19-tetrazatricyclo[12.3.1.14,8]nonadeca-1(18),4(19),5,7,14,16-hexaen-13-one] | +++ (+++ is >60+) | – | – |
| Cc1cccc(C)c1-c1cc2nc(n1)NS(=O)(=O)c1cccc(c1)C(=O)N(Cc1cncc(N(C)c3cnn(C)c3)n1)[C@H](CC(C)(C)C)CO2 [Compound 1636] | – | +++ (+++ is >60+) | – |
| Cc1cccc(C)c1-c1cc2nc(n1)NS(=O)(=O)c1cccc(c1)C(=O)N(Cc1cncc(N3CCC4NC(=O)CC43)n1)[C@H](CC(C)(C)C)CO2 (stereo in doubt) [Compound 1621] | – | ++ (++ is 30-60%) | – |
| CCN(C)c1cncc(CN2C(=O)c3cccc(c3)S(=O)(=O)Nc3nc(cc(-c4c(C)cccc4C)n3)OC[C@H]2CC(C)(C)C)n1 [Compound 1695] | – | +++ (+++ is >60+) | – |
| Cc1cccc(C)c1-c1cc2nc(n1)NS(=O)(=O)c1cccc(c1)C(=O)N(Cc1cnc(C)c(N(C)CC(C)C)n1)[C@H](CC(C)(C)C)CO2 [Compound 1322, (11R)-6-(2,6-Dimethylphenyl)-11-(2,2-dimethylpropyl)-12-[[6-[isobutyl(methyl)amino]-5-methyl-pyrazin-2-yl]methyl]-2,2-dioxo-9-oxa-2λ^6-thia-3,5,12,19-tetrazatricyclo[12.3.1.14,8]nonadeca-1(18),4(19),5,7,14,16-hexaen-13-one] | +++ (+++ is >60+) | – | – |
| CCN(c1cncc(CN2C(=O)c3cccc(c3)S(=O)(=O)Nc3nc(cc(-c4c(C)cccc4C)n3)OC[C@H]2CC(C)(C)C)n1)C1CCC1 [Compound 1579] | – | +++ (+++ is >60+) | EC50 (with 44 nM potentiator): < 1 µM; Emax (with 44 nM potentiator): > 60% |
| Cc1cccc(C)c1-c1cc2nc(n1)NS(=O)(=O)c1cccc(c1)C(=O)N(Cc1cncc(N(C)C3CCC3)n1)[C@H](C(C)C)CO2 [Compound 1690] | – | +++ (+++ is >60+) | – |
| Cc1cccc(C)c1-c1cc2nc(n1)NS(=O)(=O)c1cccc(c1)C(=O)N(Cc1ncc(N3CCC(F)(F)C3)cn1)[C@H](CC1(C)CC1)CO2 [Compound 1548] | – | +++ (+++ is >60+) | – |
| Cc1cccc(C)c1-c1cc2nc(n1)NS(=O)(=O)c1cccc(c1)C(=O)N(Cc1cncc(N(C)CC(=O)N(C)C)n1)[C@H](CC(C)(C)C)CO2 [Compound 1630] | – | ++ (++ is 30-60%) | – |
| Cc1cccc(C)c1-c1cc2nc(n1)NS(=O)(=O)c1cccc(c1)C(=O)N(Cc1ncc(N3CCC(C)(C)CC3)cn1)[C@H](CCC1CC1)CO2 [Compound 1311, (11R)-11-(2-Cyclopropylethyl)-6-(2,6-dimethylphenyl)-12-[[5-(4,4-dimethyl-1-piperidyl)pyrimidin-2-yl]methyl]-2,2-dioxo-9-oxa-2^6-thia-3,5,12,19-tetrazatricyclo[12.3.1.14,8]nonadeca-1(18),4(19),5,7,14,16-hexaen-13-one] | – | +++ (+++ is >60+) | – |
| Cc1cccc(C)c1-c1cc2nc(n1)NS(=O)(=O)c1cccc(c1)C(=O)N(Cc1cccc(N3CCC[C@@]3(C)CO)n1)[C@H](CC(C)(C)C)CO2 (stereo in doubt) [Compound 1585] | – | +++ (+++ is >60+) | – |
| Cc1cccc(C)c1-c1cc2nc(n1)NS(=O)(=O)c1cccc(c1)C(=O)N(Cc1cncc(N3CCOCC34CCC4)n1)[C@H](CC(C)(C)C)CO2 [Compound 1627] | – | +++ (+++ is >60+) | – |
| Cc1cccc(C)c1-c1cc2nc(n1)NS(=O)(=O)c1cccc(c1)C(=O)N(Cc1cncc(N3CC[C@@H]4COC[C@@H]43)n1)[C@H](CC(C)(C)C)CO2 [Compound 1541] | – | – | EC50 (with 44 nM potentiator): < 1 µM; Emax (with 44 nM potentiator): > 60% |
| Cc1cccc(C)c1-c1cc2nc(n1)NS(=O)(=O)c1cccc(c1)C(=O)N(Cc1cncc(N3CCCC34CCC4)n1)[C@H](CC(C)(C)C)CO2 [Compound 1625] | – | +++ (+++ is >60+) | – |
| COC(=O)N1CC2CCN(c3cncc(CN4C(=O)c5cccc(c5)S(=O)(=O)Nc5nc(cc(-c6c(C)cccc6C)n5)OC[C@H]4CC(C)(C)C)n3)C2C1 (stereo partly drawn) [Compound 1681] | – | +++ (+++ is >60+) | – |
| CCCOc1cnc(CN2C(=O)c3cccc(c3)S(=O)(=O)Nc3nc(cc(-c4c(C)cccc4C)n3)OC[C@H]2CC2(C)CCC2)nc1 [Compound 1641] | – | +++ (+++ is >60+) | – |
| CC(=O)N[C@H](C)c1cccc(CN2C(=O)c3cccc(c3)S(=O)(=O)Nc3nc(cc(-c4c(C)cccc4C)n3)OC[C@H]2CC(C)(C)C)n1 [Compound 1592] | – | +++ (+++ is >60+) | – |
| Cc1cccc(C)c1-c1cc2nc(n1)NS(=O)(=O)c1cccc(c1)C(=O)N(Cc1ccnc(N(C)C3CCC3)n1)[C@H](CC(C)(C)C)CO2 [Compound 1616] | – | +++ (+++ is >60+) | – |
| Cc1cccc(C)c1-c1cc2nc(n1)NS(=O)(=O)c1cccc(c1)C(=O)N(Cc1cncc(N3CCCOC4CCC43)n1)[C@H](CC(C)(C)C)CO2 (stereo partly drawn) [Compound 1332, (11R)-6-(2,6-Dimethylphenyl)-11-(2,2-dimethylpropyl)-12-[[6-(2-oxa-6-azabicyclo[5.2.0]nonan-6-yl)pyrazin-2-yl]methyl]-2,2-dioxo-9-oxa-2λ^6-thia-3,5,12,19-tetrazatricyclo[12.3.1.14,8]nonadeca-1(18),4(19),5,7,14,16-hexaen-13-one] | +++ (+++ is >60+) | – | – |

Second part, led by results:

| HBE2 Activity at 3 μM (%) [1] | HBE2 Activity at 3 μM (%) (3 μM, with 44 nM potentiator) | SMILES | also measured |
| --- | --- | --- | --- |
| +++ (+++ is >60+) | – | Cc1cccc(C)c1-c1cc2nc(n1)NS(=O)(=O)c1cccc(c1)C(=O)N(Cc1cncc(N3CCCC4CCC43)n1)[C@H](CCC(C)(C)C)CO2 (stereo in doubt) [Compound 1782] | – |
| +++ (+++ is >60+) | – | Cc1cccc(C)c1-c1cc2nc(n1)NS(=O)(=O)c1cccc(c1)C(=O)N(Cc1cncc(N(C)C3CC(F)(F)C3)n1)[C@H](COC(C)C)CO2 [Compound 1946] | – |
| +++ (+++ is >60+) | – | Cc1cccc(C)c1-c1cc2nc(n1)NS(=O)(=O)c1cccc(c1)C(=O)N(Cc1cncc(N(C)C3CC4(CC4)C3)n1)[C@H](CCC(C)(C)C)CO2 [Compound 1817] | – |
| +++ (+++ is >60+) | – | CCC(CC)N(C)c1cncc(CN2C(=O)c3cccc(c3)S(=O)(=O)Nc3nc(cc(-c4c(C)cccc4C)n3)OC[C@H]2CC(C)(C)C)n1 [Compound 1754] | – |
| +++ (+++ is >60+) | – | COC[C@@H]1CCN1c1cncc(CN2C(=O)c3cccc(c3)S(=O)(=O)Nc3nc(cc(-c4c(C)cccc4C)n3)OC[C@H]2CCC(C)(C)C)n1 [Compound 1730] | EC50 (corrector at a range of concentrations with 44 nM potentiator): < 1 µM; Emax (with 44 nM potentiator): > 60% |
| +++ (+++ is >60+) | – | Cc1cccc(C)c1-c1cc2nc(n1)NS(=O)(=O)c1cccc(c1)C(=O)N(Cc1cncc(N(C)[C@H]3C[C@H](F)C3)n1)[C@H](COC1CC1)CO2 [Compound 1907] | – |
| +++ (+++ is >60+) | – | Cc1cccc(C)c1-c1cc2nc(n1)NS(=O)(=O)c1cccc(c1)C(=O)N(Cc1cncc(N(C)CC(C)C)n1)[C@H](COC1CC1)CO2 [Compound 1903] | – |
| +++ (+++ is >60+) | – | Cc1cccc(C)c1-c1cc2nc(n1)NS(=O)(=O)c1cccc(c1)C(=O)N(Cc1cncc(C3CCC3)n1)[C@H](CCC(C)(C)C)CO2 [Compound 1852] | – |
| +++ (+++ is >60+) | – | Cc1cccc(C)c1-c1cc2nc(n1)NS(=O)(=O)c1cccc(c1)C(=O)N(Cc1cncc(N(C)[C@H]3C[C@H](F)C3)n1)[C@H](CCC(C)C)CO2 [Compound 1914] | – |
| +++ (+++ is >60+) | – | Cc1cccc(C)c1-c1cc2nc(n1)NS(=O)(=O)c1cccc(c1)C(=O)N(Cc1cncc(N3CCCO[C@H]4CC[C@H]43)n1)[C@H](CC(C)(C)C)CO2 (stereo in doubt) [Compound 1952] | – |
| +++ (+++ is >60+) | – | Cc1cccc(C)c1-c1cc2nc(n1)NS(=O)(=O)c1cccc(c1)C(=O)N(Cc1cncc(N3CCCO[C@H]4CC[C@H]43)n1)[C@H](CC(C)(C)C)CO2 (stereo in doubt) [Compound 1951] | – |
| +++ (+++ is >60+) | – | Cc1cccc(C)c1-c1cc2nc(n1)NS(=O)(=O)c1cccc(c1)C(=O)N(Cc1cccc(N3CCC[C@H]3C(C)C)n1)[C@H](CC1(C)CCC1)CO2 [Compound 1776] | – |
